Common to all, as to parameters: species or system Mytilus galloprovincialis
In one assay the test system is mussel mantle edge. The experiment in a line: Ex-vivo incubation of mantle edge fragments, calcium quantification by MP-AES. The conditions noted are these: 4 h at 19-20 °C; CALCIIa 10 μM or ouabain 2 mM alone; MP-AES at 393.366 nm; mean ± SEM; control 400.67 ±13.83 ppm; SEM. How it is done:
Figure 7 Effect of the mussel calcitonin-like peptide on (A) calcium (ppm) concentration in the mantle edge and (B) calcium uptake by mantle cells of the Mediterranean mussel. (A) The quantity of calcium (ppm) present in the mantle edge after mussel CALCIIa peptide incubation was measured using a Microwave Plasma-Atomic Emission Spectrometer (MP-AES, Agilent) at 393.366 nm. A standard curve for calcium was performed before analysing the samples. In vitro mantle assays with CALCIIa peptide and with ouabain and control (culture medium and mantle) were repeated on at least 3 independent occasions. For each assay at least ten replicates were performed and the mantle edge distal to the umbo was used (one mantle fragment per replica). Prism GraphPad v5 software was used to assess the significance of differences between the groups using a One-way Anova and Tukey’s multiple comparison test. […] C - control (no peptide or ouabain); P - peptide (10 μM); O - ouabain (2 mM), OP - ouabain (2 mM) and peptide (10 μM); PreOP - pre -stimulation for 1 hour with the peptide followed by 4 hours incubation with OP. (B) Digital photographs of the mussel mantle cells in the presence (CALCIIa, 10 μM) or absence (control) of the mussel CALCIIa peptide. Calcium ions were stained with 50 mM of Calcein (green) and cell nuclei (blue) with DAPI (Acros Organics). An increase in cellular fluorescence represents an increase in calcium uptake. Fluorescence of the CALCIIa peptide stimulated cells was 1.9 times higher than the control. The average mantle cell size was 3–4 μm and fluorescent images were taken using a Leica DM IL microscope coupled to a Visicam HDMI 6 digital camera and photographs were analysed using ImageJ software (v. 1.52a) to calculate the fluorescence intensity and for image overlay. The scale bar is indicated.
The posterior mantle edge region of the Mediterranean mussel was collected and washed in culture medium. The composition of the culture medium was as described in[91] […]

Assay [1] has as its system alpha-carbonic anhydrase (CA) esterase activity in mussel mantle edge. Nature of the assay: Esterase (carbonic anhydrase) activity in mantle after ex-vivo incubation. The conditions noted are these: after exposure to CALCIIa 10 μM or ouabain 2 mM; 4-Nitrophenyl acetate substrate; n = 6. How it is done: (§1) (A) Esterase activity and (B) Acid phosphatase activity. Enzyme activity was quantified in protein extracts from the mantle of control or challenged samples that were incubated with the mussel CALCIIa peptide. Values represent the mean ± SEM (CA, n = 6 and TRAP, n = 10) performed in duplicate. Prism GraphPad v5 software was used to assess the significance of the differences between the groups using One-way Anova and Tukey’s multiple comparison test. […] C - control; P - peptide (10 μM); O - ouabain (2 mM), OP - ouabain (2 mM) and peptide (10 μM); PreOP - pre stimulation for 1 hour with the peptide and 4 hours incubation with OP.
(§2) The posterior mantle edge region of the Mediterranean mussel was collected and washed in culture medium. The composition of the culture medium was as described in[91] […] The culture medium was supplemented with heat inactivated 2% FBS (SIGMA-ALDRICH), 0.1% penicillin: streptomycin antibiotic mix (10.000 U:10 mg/ml, SIGMA-ALDRICH) and 250 μg/ml sterile filtered 1:100 amphotericin B solution (Sigma-Aldrich). The posterior mantle edge from mussels was collected into culture medium and cut into fragments of approximately 1–2 mm in length. […]
Esterase activity in the mussel posterior mantle edge (n = 6/experimental group) was quantified using a colorimetric assay that measures the conversion of the substrate 4-Nitrophenyl acetate to p-nitrophenolate[92]. […]

For assay [2], the system named is acid phosphatase (AP) activity in mussel mantle edge. The experiment in a line: Acid phosphatase (TRAP) activity in mantle after ex-vivo incubation. The following applies: after exposure to CALCIIa 10 μM or ouabain 2 mM; TRAP assay, pNPP, pH 5.3; p < 0.05. On the procedure: as §1, §2
Acid phosphatase activity of the mantle protein extracts (n = 6/ group) was determined using 96 well-plates (GREINER, Germany) and a tartrate resistant acid phosphatase (TRAP) assay as described in[93].

Molecules are shown by their SMILES.

Regarding `C[C@@H]1O[C@@H](O[C@H]2C[C@@H](O)[C@]3(CO)[C@H]4[C@H](O)C[C@]5(C)[C@@H](C6=CC(=O)OC6)CC[C@]5(O)[C@@H]4CC[C@]3(O)C2)[C@H](O)[C@H](O)[C@H]1O` [Ouabain, ouabain], the “Calcium in the mantle edge after incubation” value in the assay on mussel mantle edge turned out to be 588.71 ± 42.92 ppm. For the same compound, in assay [1], the “CA esterase activity in mantle edge (in words)” value is on record as “neither of the bivalve CALCs or ouabain modified”. For the same compound, in assay [2], the “Acid phosphatase (AP) activity in mantle edge compared to control (in words)” value is recorded as “significantly decreased”.

The values are drawn from publication PMC7200681, “The calcitonin-like system is an ancient regulatory system of biomineralization” (Scientific Reports, 2020).
